The values below come from patent publication US10369134B2, “Nonracemic mixtures and uses thereof” (Sunovion Pharmaceuticals Inc., priority 2017, dated 2019).

The subject of the experiment is freely moving rats. Description: Sleep study of (R)-amisulpride (EEG/EMG sleep architecture). It is filed as in vivo, rat. Here is the method:
Rapid eye movement (REM) sleep time, non-rapid eye movement (NREM) sleep time, WAKE time were measured using electroencephalogram (EEG) and electromyogram (EMG) recordings. […] EEG and EMG recordings were made for 6 hr starting at the beginning of the light phase. Vehicle (0.05 N HCl/0.5% Methyl Cellulose 400 solution) or dosing suspensions were orally administered 10 min before the beginning of light phase. The volume of administration was 5 mL/kg. The order of drug treatment varied pseudo-randomly and at least 1 week was allowed between the experiments for individual animals.
A radio transmitter (TL11M2-F40-EET; Data Science International, New Brighton, Minn., USA) was implanted subcutaneously in the back of anesthetized animals, and a pair of electrode wires was stereotaxically implanted into the skull in the following locations: one in the frontoparietal (2 mm anterior to the bregma and 2 mm left to the midline), and the other in parietal (5 mm posterior to the bregma and 2 mm right to the midline) areas. The EEG electrodes were fixed using dental cement. Electromyograms (EMG) were recorded from the dorsal neck muscle. The animals, then, were allowed at least 1 week recovery in individual plastic cages before EEG/EMG recording. EEG/EMG were recorded in the home cages in a soundproof box using Dataquest A.R.T. software (Data Science International, New Brighton, Minn., USA) at a sampling rate of 500 Hz.
Sleep stage analysis was conducted off-line using Sleepsign software (KISSEI COMTEC CO., LTD, Nagano, Japan). Electrographic activity of 10-sec epochs were analyzed and each epoch was automatically assigned as WAKE, REM, and NREM based on the waveforms of EEG and EMG according to the following definitions: WAKE was defined as a condition in which EMG exceeded the individual threshold, NREM was defined as a condition in which the power of delta waves (0.5-4 Hz) exceeded the individual threshold with no EMG activity, and REM was defined as a condition in which the power of theta waves (4-8 Hz) exceeded 40% of the total power of frequencies between 0.5 and 80 Hz in the presence of no EMG activity. The duration of each REM, WAKE, and NREM periods were calculated by summing time spent in each condition during sleep every 2 hours.
All data are expressed as means±S.E.M. REM sleep, NREM sleep time, and WAKE time each of sequential 2-hr periods were compared statistically using a repeated measures two-way ANOVA, followed by post-hoc Dunnett tests.

With `CCN1CCC[C@@H]1CNC(=O)c1cc(S(=O)(=O)CC)c(N)cc1OC` [(R)-amisulpride, R-4-Amino-N-[(1-ethyl-2-pyrrolidinyl)methyl]-5-(ethylsulfonyl)-2-methoxybenzamide], the “REM sleep duration” value (rat, 100 mg/kg p.o., 0-2 hr and 2-4 hr periods after administration) is given as “significant reductions”. For the same molecule, where the note is “rat, 10, 30, 100 mg/kg p.o.”, the “NREM sleep time” value is “no observed effect” and the “WAKE time” value is listed as “no observed effect”. Where the note is “rat, 10, 30, 100 mg/kg p.o., light phase”, the “REM sleep duration” value was “reduced REM sleep duration in dose-dependent manner”.
